# Test results reported in patent US10273240B2, “Cortistatin analogues, syntheses, and uses thereof” (President and Fellows of Harvard College, priority 2015, dated 2019).
# Like-named read-outs stand apart in the source and are kept apart here.
# Legend:
# [1] = target: T1, ROCK1 in MOLM-14 cell lysate (Homo sapiens, UniProt Q13464); assay: Native kinase capture immunoblot, ROCK1; assay type: binding
# T1 construct: endogenous in cells; host or cells: MOLM-14 cell lysate
# Protocol: (§1) Native Kinase Capture Immunoblot and Native Kinome-Wide Profiling. […] Experiment was performed twice with one immunoblot shown.
# [2] = target: T2, CDK9 in MOLM-14 cell lysate (Homo sapiens, UniProt P50750); assay: Native kinase capture immunoblot, CDK9; assay type: binding
# T2 construct: endogenous in cells; host or cells: MOLM-14 cell lysate
# Protocol: as §1
# [3] = tested on: myeloid, mixed-lineage, and megakaryoblastic leukemia cell lines; assay: Cell growth assay, leukemia cell lines in general; assay type: cell-based; conditions: Homo sapiens, 240 h; 10-day treatment
# [4] = target: T3, CDK7 (TFIIH) (Homo sapiens, UniProt P50613); assay: In vitro kinase assay, CDK7 (TFIIH); assay type: biochemical
# T3 construct: TFIIH was captured from HeLa nuclear extract; endogenous in cells; host or cells: HeLa nuclear extract
# Protocol: Kinase Assays. Data was quantified with ImageJ and plotted and fitted with GraphPad Prism 6.0. For STAT1 transactivation domain (TAD), 750 ng of GST-STAT1 TAD (residues 639-750) was incubated with ˜50 ng recombinant CDK8 module at 30° C. for 8 min in kinase buffer (25 mM Tris pH 8, 2 mM DTT, 100 μM cold ATP, 100 mM KCl, 10 mM MgCl2 and 2.5 μCi [γ-^32P] ATP (Perkin Elmer) per reaction). […] 12% SDS-PAGE gels were subsequently silver stained, exposed for 18 h on a Phosphor Screen and imaged (Typhoon 9400, GE Life Sciences). For pol II CTD, 400 ng of GST-CTD (murine sequence) was incubated with ˜40 ng recombinant CDK8 module, 25 ng TFIIH, or 40 ng P-TEFb at 30° C. for 60 min in kinase buffer. Kinase amounts were chosen to give similar total pol II CTD signal. 9% SDS-PAGE gels were silver stained and exposed as above. In vitro FLAG-CDK8 kinase assays used ˜40 ng kinase and 500 ng GST-CTD. For STAT1 or Smad2/3, cells were treated with compound for 1 h followed by IFN-γ or TGF-β1 for 1 h, then washed twice with cold PBS, and lysed (RIPA buffer with inhibitors R0278, P8340, P0044, P5762 Sigma-Aldrich). Standard immunoblotting was then performed with one immunoblot shown. All experiments were performed twice.
# Protein Purification. Buffers for purification and elution of recombinant proteins included 0.25 mM PMSF, 1 mM DTT, 1 mM benzamidine, and 1 mM sodium metabisulfite. […]
# [5] = tested on: MEG-01; assay: Cell growth assay, MEG-01; assay type: cell-based; conditions: Homo sapiens, MEG-01, 240 h; CA, after 10 days; read-out: Mean GI50 (nM), MEG-01
# Protocol: (§2) Cell Culture. All media was supplemented with 100 U/mL penicillin and 100 μg/mL streptomycin. Human cancer cell lines were grown in the following media: MV4; 11, RS4; 11, K562, HEL, MOLM-14, MEG-01 in RPMI-1640, 10% FBS; SET-2 in RPMI-1640, 20% FBS; UKE-1 in RPMI-1640, 10% FBS, 10% horse serum and 1 μM hydrocortisone; SKNO-1 and TF-1 in RPMI-1640, 10% FBS, and 10 or 2 ng/mL GM-CSF, respectively; HaCaT in DMEM, 10% FBS; and HCT116 in McCoy's 5 A, 10% FBS (proliferation assay) or DMEM, 10% FBS (gene expression study). HepG2, MV4;11, RS4;11, MEG-01, TF-1, HCT116 and K562 were from ATCC. SKNO-1 was from DSMZ. HEL, UKE-1, and SET-2 were provided by Ross L. Levine and HaCaT, MV4;11-mCLP, and MOLM-14 by Van Wilson, Andrew L. Kung, and Scott A. Armstrong, respectively. MOLM-14 cells were authenticated by STR profiling and flow cytometry and all cell lines were routinely tested and found to be negative for mycoplasma.
# [6] = tested on: MV4;11; assay: Cell growth assay, MV4;11; assay type: cell-based; conditions: Homo sapiens
# Protocol: All media was supplemented with 100 U/mL penicillin and 100 μg/mL streptomycin. Human cancer cell lines were grown in the following media: MV4; 11, K562, MOLM-14 in RPMI-1640, 10% FBS; SKNO-1 in RPMI-1640, 10% FBS, and 10 ng/mL GM-CSF; MV4;11 and K562 were from ATCC. SKNO-1 was from DSMZ.
# as §2
# T1 sequence (Q13464 whole entry): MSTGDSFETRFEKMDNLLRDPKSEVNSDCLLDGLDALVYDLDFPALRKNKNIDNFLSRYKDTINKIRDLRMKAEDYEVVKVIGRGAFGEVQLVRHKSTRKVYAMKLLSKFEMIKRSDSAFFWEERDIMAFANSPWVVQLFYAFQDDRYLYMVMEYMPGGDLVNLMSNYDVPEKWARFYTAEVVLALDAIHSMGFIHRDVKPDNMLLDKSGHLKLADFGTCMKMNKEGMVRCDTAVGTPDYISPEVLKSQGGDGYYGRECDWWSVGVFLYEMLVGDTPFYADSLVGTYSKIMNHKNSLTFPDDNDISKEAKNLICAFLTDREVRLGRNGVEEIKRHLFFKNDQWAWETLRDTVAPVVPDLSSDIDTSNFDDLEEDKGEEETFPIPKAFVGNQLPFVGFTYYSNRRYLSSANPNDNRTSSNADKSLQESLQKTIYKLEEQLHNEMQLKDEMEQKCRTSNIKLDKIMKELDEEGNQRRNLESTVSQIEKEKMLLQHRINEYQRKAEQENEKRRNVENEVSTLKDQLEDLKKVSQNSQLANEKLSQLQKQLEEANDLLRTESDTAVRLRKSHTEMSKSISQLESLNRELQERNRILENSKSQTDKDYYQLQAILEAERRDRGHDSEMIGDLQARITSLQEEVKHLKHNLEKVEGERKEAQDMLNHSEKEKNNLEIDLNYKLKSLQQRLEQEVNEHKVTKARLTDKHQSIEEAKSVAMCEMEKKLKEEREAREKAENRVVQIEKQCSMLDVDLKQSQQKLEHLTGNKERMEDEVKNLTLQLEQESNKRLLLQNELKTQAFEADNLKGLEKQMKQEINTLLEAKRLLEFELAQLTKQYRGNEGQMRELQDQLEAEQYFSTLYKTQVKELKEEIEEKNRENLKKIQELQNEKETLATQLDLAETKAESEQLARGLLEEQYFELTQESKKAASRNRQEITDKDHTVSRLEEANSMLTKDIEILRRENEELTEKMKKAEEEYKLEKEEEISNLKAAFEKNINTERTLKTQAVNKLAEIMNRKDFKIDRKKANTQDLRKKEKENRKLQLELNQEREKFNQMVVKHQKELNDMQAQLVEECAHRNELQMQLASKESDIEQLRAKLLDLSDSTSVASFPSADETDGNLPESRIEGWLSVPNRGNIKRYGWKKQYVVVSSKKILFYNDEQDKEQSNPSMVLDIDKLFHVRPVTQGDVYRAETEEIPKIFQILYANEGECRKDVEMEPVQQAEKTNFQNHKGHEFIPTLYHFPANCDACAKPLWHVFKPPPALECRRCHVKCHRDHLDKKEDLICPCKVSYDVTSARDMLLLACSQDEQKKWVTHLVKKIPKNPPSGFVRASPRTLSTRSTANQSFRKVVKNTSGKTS
# T2 sequence (P50750 whole entry): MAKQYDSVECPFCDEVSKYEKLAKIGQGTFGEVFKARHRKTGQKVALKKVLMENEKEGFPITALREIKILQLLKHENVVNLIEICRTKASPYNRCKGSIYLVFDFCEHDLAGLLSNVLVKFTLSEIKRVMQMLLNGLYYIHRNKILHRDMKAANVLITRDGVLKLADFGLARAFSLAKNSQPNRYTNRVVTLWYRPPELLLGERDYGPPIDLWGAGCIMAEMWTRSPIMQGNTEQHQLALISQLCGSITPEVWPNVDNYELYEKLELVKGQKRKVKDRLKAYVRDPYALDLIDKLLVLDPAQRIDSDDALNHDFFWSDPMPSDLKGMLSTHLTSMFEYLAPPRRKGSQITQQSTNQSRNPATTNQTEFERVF
# T2 sequence (O60563 whole entry partner): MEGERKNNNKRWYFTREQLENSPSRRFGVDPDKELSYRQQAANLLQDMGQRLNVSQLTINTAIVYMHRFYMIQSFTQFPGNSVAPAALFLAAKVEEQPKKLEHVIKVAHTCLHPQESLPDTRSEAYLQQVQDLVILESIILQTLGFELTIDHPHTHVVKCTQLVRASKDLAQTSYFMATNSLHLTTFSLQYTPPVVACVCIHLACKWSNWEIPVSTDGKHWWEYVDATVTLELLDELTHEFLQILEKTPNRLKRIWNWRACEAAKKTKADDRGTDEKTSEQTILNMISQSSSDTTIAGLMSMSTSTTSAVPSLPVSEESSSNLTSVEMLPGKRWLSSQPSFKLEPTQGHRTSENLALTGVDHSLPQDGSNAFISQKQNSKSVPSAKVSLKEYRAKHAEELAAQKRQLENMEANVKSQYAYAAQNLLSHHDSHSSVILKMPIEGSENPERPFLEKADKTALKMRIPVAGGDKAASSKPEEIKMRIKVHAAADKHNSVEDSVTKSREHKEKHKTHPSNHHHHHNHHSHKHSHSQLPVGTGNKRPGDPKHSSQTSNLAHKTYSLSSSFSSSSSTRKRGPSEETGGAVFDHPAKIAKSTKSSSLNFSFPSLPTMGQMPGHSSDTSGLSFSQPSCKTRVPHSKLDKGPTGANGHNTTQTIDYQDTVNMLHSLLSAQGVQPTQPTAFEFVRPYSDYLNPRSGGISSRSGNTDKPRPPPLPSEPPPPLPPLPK
structure (smiles),measurement,setting,value
"CN(C)[C@H]1C[C@@]23CC[C@@]4(O2)C(=CC[C@@]2(C)[C@@H](c5ccc6ccncc6c5)CC[C@H]24)C=C3[C@@H](O)[C@@H]1O [CA, cortistatin A]",binding of ROCK1 (no binding up to),[1],> 2500 nM
same,binding of CDK9 (no binding at up to),[2],> 2500 nM
same,GI50,[3],< 10 nM
same,inhibition of CDK7 (TFIIH),[4],did not inhibit
same,GI50,[5],9 nM
same,GI50,"[6]; MV4-11, 240 h, CA, after 10 days, read-out: Mean GI50 (nM), MV4;11",6 nM
same,GI50,"[6]; MV4-11, 240 h, read-out: MV4;11 GI50 day 10",3.5 nM
same,GI50,"[6]; MV4-11, Table 5, read-out: GI50 (nM), MV4;11",6 nM
